Data taken from ChEMBL document CHEMBL1201862, “PubChem BioAssay data set” (2004).
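Protocol summary: plate cells (96-well), add compound at 5 concentrations, incubate 48 h, interpolate endpoints linearly. The concentration for 50% growth inhibition is given as GI50.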 Calls of active or inactive are those of the source. No stated cut-off is given here; in the data, active = GI50 up to about 1.1 µM and inactive = higher.

Columns and labels:
Experiment in all cases: NCI anticancer screen, dose series, 48 h
786-0 = test system: 786-0
A498 = test system: A498
A549 = test system: A549
ACHN = test system: ACHN
BT-549 = test system: BT-549
CAKI-1 = test system: CAKI-1
CCRF-CEM = test system: CCRF-CEM
COLO 205 = test system: COLO 205
DU-145 = test system: DU-145
EKVX = test system: EKVX
HCT-116 = test system: HCT-116
HCT-15 = test system: HCT-15
HL-60 = test system: HL-60
HOP-62 = test system: HOP-62
HOP-92 = test system: HOP-92
HT-29 = test system: HT-29
Hs-578T = test system: Hs-578T
IGROV-1 = test system: IGROV-1
K562 = test system: K562
KM12 = test system: KM12
LOX IMVI = test system: LOX IMVI
M14 = test system: M14
MDA-MB-231 = test system: MDA-MB-231
MDA-MB-435 = test system: MDA-MB-435
MDA-N = test system: MDA-N
MOLT-4 = test system: MOLT-4
Malme-3M = test system: Malme-3M
NCI-H226 = test system: NCI-H226
NCI-H23 = test system: NCI-H23
NCI-H460 = test system: NCI-H460
NCI-H522 = test system: NCI-H522
NCI/ADR-RES = test system: NCI/ADR-RES
OVCAR-3 = test system: OVCAR-3
OVCAR-5 = test system: OVCAR-5
OVCAR-8 = test system: OVCAR-8
PC-3 = test system: PC-3
RPMI-8226 = test system: RPMI-8226
RXF 393 = test system: RXF 393
SF-268 = test system: SF-268
SF-295 = test system: SF-295
SF-539 = test system: SF-539
SK-MEL-28 = test system: SK-MEL-28
SK-MEL-2 = test system: SK-MEL-2
SK-MEL-5 = test system: SK-MEL-5
SK-OV-3 = test system: SK-OV-3
SN12C = test system: SN12C
SNB-19 = test system: SNB-19
SNB-75 = test system: SNB-75
SW-620 = test system: SW-620
T47D = test system: T47D
TK-10 = test system: TK-10
U-251 = test system: U-251
UACC-257 = test system: UACC-257
UACC-62 = test system: UACC-62
UO-31 = test system: UO-31
OVCAR-4 = test system: OVCAR-4
SR = test system: SR

How did the GI50 (786-0) turn out when N#C[C@H](C(=O)c1ccccc1F)c1nc2ccccc2s1 was run?
Its GI50 is 31.2 µM (inactive).

And the GI50 (A498)?
The GI50 was 33 µM (inactive).

What about the GI50 (A549) of the same compound?
The GI50 was 29 µM (inactive).

What about the GI50 (ACHN) of the same compound?
Its GI50 is 49.1 µM (inactive).

What about the GI50 (BT-549) of the same compound?
The GI50 was 46.6 µM (inactive).

And the GI50 (CAKI-1)?
The GI50 was 32.5 µM (inactive).

And the GI50 (CCRF-CEM)?
The GI50 was 23.4 µM (inactive).

What about the GI50 (COLO 205) of the same compound?
The GI50 was 23.7 µM (inactive).

What about the GI50 (DU-145) of the same compound?
Its GI50 is 42.6 µM (inactive).

And the GI50 (EKVX)?
The GI50 was 28 µM (inactive).

And the GI50 (HCT-116)?
Its GI50 is 23.5 µM (inactive).

What about the GI50 (HCT-15) of the same compound?
Its GI50 is 54.5 µM.

And the GI50 (HL-60)?
The GI50 was 31.3 µM (inactive).

What about the GI50 (HOP-62) of the same compound?
The GI50 was 20.5 µM (inactive).

And the GI50 (HOP-92)?
Its GI50 is 48.1 µM (inactive).

What about the GI50 (HT-29) of the same compound?
Its GI50 is 28.1 µM (inactive).

And the GI50 (Hs-578T)?
The GI50 was 15.1 µM (inactive).

And the GI50 (IGROV-1)?
Its GI50 is 17.8 µM (inactive).

What about the GI50 (K562) of the same compound?
Its GI50 is 27.3 µM (inactive).

What about the GI50 (KM12) of the same compound?
The GI50 was 11 µM (inactive).

And the GI50 (LOX IMVI)?
Its GI50 is 33 µM (inactive).

What about the GI50 (M14) of the same compound?
The GI50 was 21.8 µM (inactive).

What about the GI50 (MDA-MB-231) of the same compound?
Its GI50 is 35.8 µM (inactive).

What about the GI50 (MDA-MB-435) of the same compound?
Its GI50 is 39.8 µM (inactive).

And the GI50 (MDA-N)?
The GI50 was 38.3 µM (inactive).

What about the GI50 (MOLT-4) of the same compound?
Its GI50 is 26.5 µM (inactive).

What about the GI50 (Malme-3M) of the same compound?
Its GI50 is 10.4 µM (inactive).

What about the GI50 (NCI-H226) of the same compound?
Its GI50 is 21.9 µM (inactive).

And the GI50 (NCI-H23)?
Its GI50 is 46.3 µM (inactive).

And the GI50 (NCI-H460)?
Its GI50 is 28.9 µM (inactive).

And the GI50 (NCI-H522)?
Its GI50 is 15.5 µM (inactive).

And the GI50 (NCI/ADR-RES)?
The GI50 was 26.9 µM (inactive).

And the GI50 (OVCAR-3)?
The GI50 was 18.5 µM (inactive).

And the GI50 (OVCAR-5)?
The GI50 was 31 µM (inactive).

And the GI50 (OVCAR-8)?
The GI50 was 25.1 µM (inactive).

What about the GI50 (PC-3) of the same compound?
The GI50 was 24.2 µM (inactive).

What about the GI50 (RPMI-8226) of the same compound?
The GI50 was 22.5 µM (inactive).

And the GI50 (RXF 393)?
The GI50 was 27.7 µM (inactive).

And the GI50 (SF-268)?
The GI50 was 26.9 µM (inactive).

What about the GI50 (SF-295) of the same compound?
The GI50 was 16.1 µM (inactive).

And the GI50 (SF-539)?
The GI50 was 20.7 µM (inactive).

What about the GI50 (SK-MEL-28) of the same compound?
The GI50 was 36.5 µM (inactive).

What about the GI50 (SK-MEL-2) of the same compound?
Its GI50 is 16.6 µM (inactive).

And the GI50 (SK-MEL-5)?
Its GI50 is 26.9 µM (inactive).

And the GI50 (SK-OV-3)?
Its GI50 is 21.1 µM (inactive).

And the GI50 (SN12C)?
Its GI50 is 31.6 µM (inactive).

And the GI50 (SNB-19)?
The GI50 was 27.5 µM (inactive).

And the GI50 (SNB-75)?
Its GI50 is 14.8 µM (inactive).

And the GI50 (SW-620)?
Its GI50 is 32.3 µM (inactive).

And the GI50 (T47D)?
The GI50 was 34.8 µM (inactive).

And the GI50 (TK-10)?
Its GI50 is > 100 µM (inactive).

And the GI50 (U-251)?
Its GI50 is 33.3 µM (inactive).

And the GI50 (UACC-257)?
Its GI50 is 66.1 µM (inactive).

What about the GI50 (UACC-62) of the same compound?
The GI50 was 50.8 µM (inactive).

And the GI50 (UO-31)?
The GI50 was 46.8 µM (inactive).

Which results are given for Clc1nc(Nc2nc3ccccc3[nH]2)nc(Cl)c1-c1ccccc1?
GI50 (786-0): 16.1 µM (inactive); GI50 (A498): 21.5 µM (inactive); GI50 (A549): 34.7 µM (inactive); GI50 (ACHN): 15.8 µM (inactive); GI50 (BT-549): 16.5 µM (inactive); GI50 (CAKI-1): 31.1 µM (inactive); GI50 (CCRF-CEM): 19.5 µM (inactive); GI50 (COLO 205): 19.1 µM (inactive); GI50 (DU-145): 74.3 µM (inactive); GI50 (EKVX): 23.6 µM (inactive); GI50 (HCT-116): 21.1 µM (inactive); GI50 (HCT-15): 14.4 µM; GI50 (HL-60): 36.1 µM (inactive); GI50 (HOP-92): 8.65 µM (inactive); GI50 (HT-29): 16.8 µM (inactive); GI50 (Hs-578T): 21.5 µM (inactive); GI50 (IGROV-1): 19 µM (inactive); GI50 (K562): 25.2 µM (inactive); GI50 (KM12): 40.8 µM (inactive); GI50 (M14): 35.1 µM (inactive); GI50 (MDA-MB-231): 12.7 µM (inactive); GI50 (MDA-MB-435): 29.3 µM (inactive); GI50 (MDA-N): 10.3 µM (inactive); GI50 (MOLT-4): 76 µM (inactive); GI50 (Malme-3M): 19.1 µM (inactive); GI50 (NCI-H226): 20.5 µM (inactive); GI50 (NCI-H23): 17.3 µM (inactive); GI50 (NCI-H460): 12.2 µM (inactive); GI50 (NCI-H522): 17.3 µM (inactive); GI50 (NCI/ADR-RES): 27.7 µM (inactive); GI50 (OVCAR-4): 14.8 µM (inactive); GI50 (OVCAR-5): 28.3 µM (inactive); GI50 (OVCAR-8): 27.7 µM (inactive); GI50 (PC-3): 23 µM (inactive); GI50 (RPMI-8226): 34.3 µM (inactive); GI50 (RXF 393): 16.9 µM (inactive); GI50 (SF-268): 33 µM (inactive); GI50 (SF-295): 18 µM (inactive); GI50 (SF-539): 18.1 µM (inactive); GI50 (SK-MEL-28): 11.7 µM (inactive); GI50 (SK-MEL-2): 23.3 µM (inactive); GI50 (SK-MEL-5): 20.9 µM (inactive); GI50 (SK-OV-3): 22.1 µM (inactive); GI50 (SN12C): 12.6 µM (inactive); GI50 (SNB-19): 36.1 µM (inactive); GI50 (SNB-75): 9.38 µM (inactive); GI50 (SR): 29.1 µM (inactive); GI50 (SW-620): 11.2 µM (inactive); GI50 (T47D): 40.7 µM (inactive); GI50 (TK-10): 39.4 µM (inactive); GI50 (U-251): 15.9 µM (inactive); GI50 (UACC-257): 29.7 µM (inactive); GI50 (UACC-62): 18.1 µM (inactive); GI50 (UO-31): 20.8 µM (inactive)
